How the values were obtained:
[1] = test system: cocaine-dependent volunteers; assay: Physiological monitoring (HR, MBP, ETCO2, ECG) after double-blind IV cocaine infusion; format: in vivo; details: human
Description: Subjects were admitted to the MGH GCRC for the screening procedures; those meeting all criteria were boarded overnight on the unit in preparation for imaging the following day. The following morning the subject had bilateral intravenous catheters placed (right forearm for cocaine or saline infusion, left forearm for serial venous blood sampling for quantitative cocaine levels). Scanning was performed between 11AM and 3PM during which the subject was in the scanner for two periods of time each lasting from 45 to 90 minutes. During each scanning period, one infusion was given, either cocaine (0.6 mg/kg, maximum dose 40 mg) or saline (both in a volume of 10 cc given over 30 seconds IV) in a randomized, double blind order. Five different scans were performed during each period. The infusion itself was made 5 minutes into an 18 minute long blood oxygen level dependent (BOLD) scan. The BOLD infusion scan was bracketed by flow-sensitive alternating inversion recovery (FAIR) and visual stimulation BOLD scans (the data from these scans were used to delineate the global vs. regional signal changes from cocaine). The time interval between functional scans within a period was kept to a minimum. The entire sequence of 5 functional scans was completed within 45-60 minutes. The subject was removed from the scanner for a 15-30 minute rest and then was returned to magnet and the sequence was repeated for the second infusion. A minimum of two hours had to pass between each double-blind infusion.
Physiologic monitoring was conducted using an In Vivo OmniTrak 3100 patient monitoring system (Orlando, Fla.) modified to permit on-line computer acquisition of physiologic measurements. Each subject was fitted with chest leads to record the electrocardiogram (ECG) and to measure heart rate (HR), a nasal cannula to measure respiratory rate and end-expiratory carbon dioxide (ETCO2), and a blood pressure cuff to measure non-invasively systemic mean blood pressure (MBP). The temporal resolution of the system for sampling blood pressure was once every two minutes.
Precautions taken to ensure safe conduct of the study included use of ACLS trained personnel, frequent running of mock codes with clocked performance of tasks and strict definition of individual tasks, and presence of a cardiologist at the time of all infusions whose sole responsibility was to monitor subject safety. Before and after completion of both infusions, subjects underwent a 12-lead ECG to determine the absence of any interval change from the experiments. Because of magnetohydrodynamic effects on the ECG tracing, a baseline rhythm strip was obtained prior to each drug infusion and all subsequent tracings were compared to that one.
Physiological Data: The data analysis and graphing program IGOR (WaveMetrics, Inc.) was used to analyze the data. Data were first analyzed by a 2 way ANOVA with drug treatment (saline, cocaine) and time of measurement as factors. When significant F values were obtained for one of the physiologic measures, individual time points were compared by post-hoc t-tests to determine if (and at what times) the change from baseline was significant. The Bonferroni correction for multiple comparisons was used; the criteria for significance at the 0.05 level was p<0.007.

[2] = test system: Male Harlan Sprague-Dawley rats; assay: Arterial blood pressure and heart rate monitoring in rat
Description: All procedures were carried out in accordance with NIH guidelines. Male Harlan Sprague-Dawley rats (225-300 gm) were anesthetized briefly with 1.5% halothane in oxygen for insertion of left femoral arterial and venous cannulae and placement of tracheostomy for mechanical ventilation (using a 16 gauge intravenous catheter, Inste-W, Becton Dickinson, Sandy, Utah). All wounds were infiltrated with 1% lidocaine before incision. Following surgery, the inspired halothane concentration was reduced to 0.7% and rats were paralyzed with 2 mg/kg intravenous pancuronium, followed by a continuous intravenous infusion of pancuronium at 2 mg/kg/hr. Pancuronium was dissolved in normal saline administered at 5 ml/kg/hr. Rats were mechanically ventilated (in a small animal volume controlled ventilator, Harvard Apparatus, Inc., South Natick, Mass.) with a 80/20 air/oxygen mixture, an inspiratory to expiratory ratio of 1:1, and an initial tidal volume of 3.0 ml at a rate of 40 breaths per minute. Ventilation parameters were adjusted to maintain normal arterial blood gases (pH=7.40±0.01, PaCO2=40±2, PaO2=145±10). Arterial blood samples (150 μl) withdrawn from cannula were analyzed for arterial partial pressures of oxygen, carbon dioxide, and pH (Ciba-Coming Model 1304) before administration of drugs, and at the end of each experiment before sacrifice, to ensure animal stability. Arterial blood pressure and rectal temperature were monitored throughout the experiment. […] Rats torsos were wrapped in two heating blankets (Gaymar, Orchid Park, N.Y.) circulating warm water to maintain core temperature at 37-38° C. […]
Regional cortical blood flow was determined by LDF (Perimed, PF2B, Stockholm, Sweden) as described previously (Ayata, et al., 1996, J. Cereb. Blood Flow Metab., 16:539-541). […] All data were collected, stored, and analyzed using MacLab/8 data acquisition and analysis system (ADInstruments, Mountain View, Calif.). Arterial pressure was continuously monitored and the data stored; heart rate was calculated from arterial pressure pulses by the data acquisition software. […]

[3] = test system: rat frontal cortex; assay: Laser Doppler-flowmetry (LDF) of regional cortical blood flow (CBF) in rat; format: in vivo
Description: All procedures were carried out in accordance with NIH guidelines. Male Harlan Sprague-Dawley rats (225-300 gm) were anesthetized briefly with 1.5% halothane in oxygen for insertion of left femoral arterial and venous cannulae and placement of tracheostomy for mechanical ventilation (using a 16 gauge intravenous catheter, Inste-W, Becton Dickinson, Sandy, Utah). All wounds were infiltrated with 1% lidocaine before incision. Following surgery, the inspired halothane concentration was reduced to 0.7% and rats were paralyzed with 2 mg/kg intravenous pancuronium, followed by a continuous intravenous infusion of pancuronium at 2 mg/kg/hr. Pancuronium was dissolved in normal saline administered at 5 ml/kg/hr. Rats were mechanically ventilated (in a small animal volume controlled ventilator, Harvard Apparatus, Inc., South Natick, Mass.) with a 80/20 air/oxygen mixture, an inspiratory to expiratory ratio of 1:1, and an initial tidal volume of 3.0 ml at a rate of 40 breaths per minute. Ventilation parameters were adjusted to maintain normal arterial blood gases (pH=7.40±0.01, PaCO2=40±2, PaO2=145±10). Arterial blood samples (150 μl) withdrawn from cannula were analyzed for arterial partial pressures of oxygen, carbon dioxide, and pH (Ciba-Coming Model 1304) before administration of drugs, and at the end of each experiment before sacrifice, to ensure animal stability. Arterial blood pressure and rectal temperature were monitored throughout the experiment. […] Rats torsos were wrapped in two heating blankets (Gaymar, Orchid Park, N.Y.) circulating warm water to maintain core temperature at 37-38° C. To minimize MRI motion artifact, rats were placed into a custom plastic cradle attached to a head frame machined from delrin plastic (David Kopf Instruments, Fremont, Calif.); heads were fixed with plastic screws inserted into the ear canals and a bar inserted under the front incisors. Rat heads were shaved and covered with gel toothpaste to reduce magnetic susceptibility artifacts arising from air-tissue interfaces; ear canals and oropharynx were also filled with toothpaste. A surface coil was secured over the dorsal surface of the head before positioning the animal in the magnet center. Cocaine (RBI, Natick, Mass.), SCH-23390 (RBI, Natick, Mass.), and cocaine methiodide (NIDA, Bethesda, Md.) were dissolved in normal saline and administered in a 0.5 ml volume at a rate of 1 ml/min via the femoral vein. Sixty minutes passed before injections of cocaine were repeated.
Regional cortical blood flow was determined by LDF (Perimed, PF2B, Stockholm, Sweden) as described previously (Ayata, et al., 1996, J. Cereb. Blood Flow Metab., 16:539-541). Rats (n=8) were prepared exactly as for dynamic MR studies and positioned in a standard stereotaxic head frame. With the scalp incised and retracted, two holes (1-2 mm in diameter) were drilled through the skull 2 mm lateral to midline; one hole was 2 mm anterior to bregma overlying frontal cortex, and the other was 8 mm posterior to bregma to examine occipital cortex. The flow probe was positioned directly upon exposed dura mater in a puddle of mineral oil. […] All data were collected, stored, and analyzed using MacLab/8 data acquisition and analysis system (ADInstruments, Mountain View, Calif.). Arterial pressure was continuously monitored and the data stored; heart rate was calculated from arterial pressure pulses by the data acquisition software. […]

[4] = test system: rat brain regions; assay: CBV-weighted fMRI with MION contrast in rat after IV cocaine; format: in vivo
[5] = rat frontal cortex, cocaine 0.5 mg/kg IV
[6] = rat frontal cortex, cocaine 0.5 mg/kg IV, post infusion

SMILES: COC(=O)[C@H]1[C@@H](OC(=O)c2ccccc2)C[C@@H]2CC[C@H]1N2C [cocaine]
- cardiac rhythm (ECG) ([1]; all subjects throughout the study): Normal sinus rhythm
- time for HR, MBP and ETCO2 to return to baseline ([1]; cocaine 0.6 mg/kg IV): ≤ 2 h
- heart rate (HR) ([1]; cocaine 0.6 mg/kg IV over 30 seconds, n=17, 2 minutes post-infusion): 79±16 bpm
- mean blood pressure (MBP) ([1]; cocaine 0.6 mg/kg IV, 2 minutes post-infusion): 101±12 torr
- mean blood pressure (MBP) ([1]; cocaine 0.6 mg/kg IV, 5 minutes): 111±15 torr
- end-tidal carbon dioxide (ETCO2) ([1]; cocaine 0.6 mg/kg IV, by 10 minutes): 36±4 mm Hg
- heart rate (HR) ([1]; cocaine 0.6 mg/kg IV, n=17, 5 minutes post infusion): 82±12 bpm
- heart rate (HR) ([1]; cocaine 0.6 mg/kg IV, n=17, 10 minutes post infusion): 93±14 bpm
- adverse cardiovascular response ([2]; cocaine doses above 5 mg/kg IV): profound hypotension and cardiac arrhythmia
- transient increase in arterial blood pressure ([2]; cocaine infusion 0.5 mg/kg): 5-10 mm Hg
- maximum increase of cortical CBF over baseline [3, 5]: 41%
- time to peak CBF [3, 5]: approximately 3.5 minutes
- time of return of CBF to baseline [3, 6]: ≤ 25 min
- maximum elevation of frontal cortex blood flow ([3]; rat, LDF, after 1 mg/kg cocaine): 35±3
- maximum increase of cortical CBV over baseline [4, 5]: 32%
- time to peak CBV [4, 5]: approximately 3.5 minutes
- time of return of CBV to baseline [4, 6]: ≤ 25 min
- time to maximum CBV change, all cortical and subcortical regions ([4]; rat, after initiation of 0.5 mg/kg cocaine infusion): 3 to 6 min
- increase in CBV at peak, agranular lateral frontal neocortex ([4]; rat, cocaine 0.5 mg/kg IV): ~30%
- increase in CBV at peak, agranular medial frontal neocortex ([4]; rat, cocaine 0.5 mg/kg IV): approximately 40%
- average CBV response of four subcortical regions relative to five frontal and parietal cortical regions ([4]; rat, cocaine 0.5 mg/kg IV, p<0.005): 45%
